Data as given in US20080138812A1, “Screening Method For Competitive Hiv Rt Inhibitors” (priority 2005, published 2008).

How the values were obtained:
[1] = molecular target: T1, HIV Reverse Transcriptase (Human immunodeficiency virus type 1 group M subtype B, UniProt P04585); experiment: in vitro inhibition of HIV reverse transcriptase in presence and absence of ATP or other nucleoside phosphates (kit TRK 1022); type: biochemical
T1 construct: purchased Amersham Life Sciences TRK 1022
Experimental: The assay was run using kit TRK 1022™ (Amersham Life Sciences) according to the manufacturer's instructions with slight modifications. Test compounds were diluted in steps of ¼ in 100% DMSO and subsequently diluted 1/50 in Medium A (RPMI 1640+10% fetal calf serum, […] gentamycin).
In each experiment three conditions were tested: wells filled with 25 μl of the above compound solutions, wells filled with 25 μl 2% DMSO in Medium A (RO) and wells filled with 100 μl Stopsolution and 25 μl DMSO in Medium A (RI). To each well was added 25.5 μl master mix (5 μl primer/template beads, 10 μl assay buffer, 0.5 μl tracer (50 μM [3H]-dTTP), 5 μl HIV RT enzyme solution (15 mU/μl), 5 μl Medium A). The plates were sealed, and incubated during 4 hours at 37° C. Subsequently, 100 μl stop solution was added to each well (except RI). The radioactivity was counted in a TopCount™.
For testing compound inhibition in the presence of ATP the same protocol as above was used but the Medium A in the master mix was replaced with Medium A containing 320 mM ATP.
The procedures of example 1 were repeated but ATP was changed by a number of other nucleoside phosphates. The following table lists the tested nucleoside phosphates and the IC50 values in μM of compound 1 obtained in the presence of the concerned nucleoside phosphate.

[2] = tested on: wild-type HIV-1 (LAI strain); experiment: anti-viral cellular assay, HIV-infected MT4 cells, MTT readout, wild-type virus; type: cell-based; conditions: Human immunodeficiency virus 1, 120 h, five days
Experimental: The test compounds are examined for anti-viral activity in a cellular assay performed according to the following procedure.
(§1) HIV- or mock-infected MT4 cells were incubated for five days in the presence of various concentrations of the test compound. At the end of the incubation period, the replicating virus in the control cultures had killed all HIV-infected cells in the absence of any inhibitor. Cell viability was determined by measuring the concentration of MTT, a yellow, water soluble tetrazolium dye that is converted to a purple, water insoluble formazan in the mitochondria of living cells only. Upon solubilization of the resulting formazan crystals with isopropanol, the absorbance of the solution was monitored at 540 nm. The values correlate directly to the number of living cells remaining in the culture at the completion of the five day incubation. The inhibitory activity of the compound was monitored on the virus-infected cells and was expressed as EC50 and EC90. These values represent the amount of the compound required to protect 50% and 90%, respectively, of the cells from the cytopathogenic effect of the virus. […] Wherever results are reported as e.g. pEC50 or pCC50 values, the result is expressed as the negative logarithm of the result expressed as EC50 or CC50 respectively.

HIV RT = HIV RT (Human immunodeficiency virus type 1 group M subtype B, UniProt P04585); experiment: enzyme kinetics studies (1/v versus 1/[dTTP]); type: biochemical; conditions: 40-3 μM dTTP, 2-0 μM compound, poly(rA)oligo(dT); lines cross at Y-axis intercept
Experimental: The enzyme kinetics studies were carried out using a protocol involving a 4×5 matrix of varying substrate and inhibitor concentrations over ranges of 40-3 μM of dTTP and 2-0 μM of compound 1.
The reaction mixtures (50 μl) further contained 50 mM Tris.HCl (pH 7.8), 5 mM dithiothreitol, […], 500 μM EDTA, 150 mM KCl, 5 mM MgCl2, 0.15 mM of the template/primer poly(rA)oligo(dT) and 0.06% Triton X-100.
The reaction mixtures were incubated at 37° C. for 15 min, at which time 100 μl of calf thymus DNA (150 pg/ml), 2 ml of Na4P2O7 (0.1 M in 1 M HCl), and 2 ml of trichloroacetic acid (10% v/v) were added. The solutions were kept on ice for 30 min, after which the acid-insoluble material was washed and analyzed for radioactivity. When the reciprocal of the reaction velocity (1/v) is plotted against the reciprocal of the substrate concentration (1/[dTTP]) in the presence of different concentrations of compound 1, the graph (See FIG. 1) is obtained.

[3] = tested on: site-directed mutant of wild-type HIV-1 (HXB2) that contains the K103N and Y181C mutation; experiment: anti-viral cellular assay, MT4 cells, MTT readout, NNRTI-resistant mutant virus; type: cell-based; conditions: Human immunodeficiency virus 1, HXB2, MT4
Experimental: as §1, with “virus. The toxicity of the compound was measured on the mock-infected cells and was expressed as CC50, which represents the concentration of compound required to inhibit the growth of the cells by 50%.” for “virus.”, “respectively. […]” for “respectively.”

Which results are given for `Cn1c2ccccc2c2c1cc(C#N)c(=O)n2-c1ccc([N+](=O)[O-])cc1` [Compound 1]?
IC50 ([1]; in the absence of ATP): 0.3 µM; IC50 ([1]; in the presence of ADP): 0.023 µM; IC50 ([1]; in the presence of AMP): 0.0178 µM; IC50 ([1]; in the presence of ATP (Medium A in master mix containing 320 mM ATP)): 0.016 µM; IC50 ([1]; in the presence of ATPbgNH): 0.0245 µM; IC50 ([1]; in the presence of ATPgS): 0.0124 µM; IC50 ([1]; in the presence of CTP): 0.114 µM; IC50 ([1]; in the presence of GTP): 0.0704 µM; IC50 ([1]; in the presence of PPi): 0.199 µM; IC50 ([1]; in the presence of UTP): 0.0519 µM; EC50 [2]: 0.045 µM; mode of HIV RT inhibition (HIV RT): competitive mode of HIV RT inhibition; EC50 [3]: 0.098 µM
